Several values for one entry are separate records, joined by “and”; a condition that tells them apart may be missing. Identical values can stand only once. Like-named read-outs stand apart in the source and are kept apart here.
How the values were obtained:
[1] = target: T1, human recombinant adrenergic α2B receptor (Homo sapiens, UniProt P18089); assay: Radioligand binding, adrenergic α2B ([3H]Rauwolscine); conditions: for Percentage inhibition of ligand binding, Adrenergic α2B / Percentage inhibition of ligand binding, Adrenergic α2B (0.03 μM): 0.03 µM
T1 construct: expressed in transfected cells; host or cells: CHO-K1
T1 sequence (P18089 1-450): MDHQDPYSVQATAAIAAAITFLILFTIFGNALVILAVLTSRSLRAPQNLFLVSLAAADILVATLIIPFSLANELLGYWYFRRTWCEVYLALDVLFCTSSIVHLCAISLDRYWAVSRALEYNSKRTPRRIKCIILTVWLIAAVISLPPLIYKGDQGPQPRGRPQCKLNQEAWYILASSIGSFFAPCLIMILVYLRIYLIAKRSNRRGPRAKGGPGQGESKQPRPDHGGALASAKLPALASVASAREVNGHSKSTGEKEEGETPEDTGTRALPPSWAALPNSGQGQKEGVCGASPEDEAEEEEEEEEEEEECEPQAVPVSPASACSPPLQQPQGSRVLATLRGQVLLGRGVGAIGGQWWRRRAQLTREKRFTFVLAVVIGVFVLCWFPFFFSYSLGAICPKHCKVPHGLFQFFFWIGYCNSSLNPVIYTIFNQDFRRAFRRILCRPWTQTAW
Procedure, shortened: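 Readout: percent inhibition of specific [3H]Rauwolscine binding, measured by filtration and counting. Conditions: CHO-K1 cell-expressed receptor, 2.5 nM radioligand, 60 min, 25° C, Tris-HCl pH 7.4 buffer with MgCl2, EDTA, BSA. Non-specific binding: 10 μM Prazosin.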

[2] = target: T2, human recombinant adrenergic α1D receptor (Homo sapiens, UniProt P25100); assay: Radioligand binding, adrenergic α1D ([3H]Prazosin)
T2 construct: expressed in transfected cells; host or cells: HEK-293
T2 sequence (P25100 1-572): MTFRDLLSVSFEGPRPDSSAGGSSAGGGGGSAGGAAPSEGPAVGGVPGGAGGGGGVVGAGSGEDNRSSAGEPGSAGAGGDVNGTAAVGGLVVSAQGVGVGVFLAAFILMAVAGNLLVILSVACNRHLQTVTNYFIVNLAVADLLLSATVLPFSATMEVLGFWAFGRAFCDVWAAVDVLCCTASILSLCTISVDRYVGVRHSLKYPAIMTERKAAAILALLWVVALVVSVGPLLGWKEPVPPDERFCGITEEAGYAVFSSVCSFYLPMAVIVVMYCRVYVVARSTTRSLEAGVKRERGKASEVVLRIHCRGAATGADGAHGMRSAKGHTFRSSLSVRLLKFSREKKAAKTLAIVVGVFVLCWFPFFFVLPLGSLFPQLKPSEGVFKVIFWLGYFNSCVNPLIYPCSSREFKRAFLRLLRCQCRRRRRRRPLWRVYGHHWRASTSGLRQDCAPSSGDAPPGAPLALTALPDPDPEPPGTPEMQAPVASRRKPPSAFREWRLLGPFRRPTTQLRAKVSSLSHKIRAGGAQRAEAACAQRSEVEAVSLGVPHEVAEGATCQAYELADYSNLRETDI
Method: Compounds were incubated with 0.6 nM [3H]Prazosin for 60 min at 25° C. Non-specific binding was estimated in the presence of 10 μM phentolamine. Receptor proteins were filtered and washed, the filters were then counted to determine [3H]Prazosin specifically bound. […] Biochemical assay results are presented as the percent inhibition of specific binding in Table B1.

[3] = target: T3, human recombinant adrenergic α2A receptor (Homo sapiens, UniProt P08913); assay: Radioligand binding, adrenergic α2A ([3H]MK-912); conditions: for Percentage inhibition of ligand binding, Adrenergic α2A / Percentage inhibition of ligand binding, Adrenergic α2A (0.1 μM): compound at 0.1 μM, 0.1 µM; for Percentage inhibition of ligand binding, Adrenergic α2A: repeat assays, each datapoint shown; for inhibition at 0.1 µM: 0.1 μM compound, read-out: Percentage inhibition of ligand binding, Adrenergic α2A
T3 construct: expressed in transfected cells; host or cells: insect Sf9 cells
T3 sequence (P08913 1-465): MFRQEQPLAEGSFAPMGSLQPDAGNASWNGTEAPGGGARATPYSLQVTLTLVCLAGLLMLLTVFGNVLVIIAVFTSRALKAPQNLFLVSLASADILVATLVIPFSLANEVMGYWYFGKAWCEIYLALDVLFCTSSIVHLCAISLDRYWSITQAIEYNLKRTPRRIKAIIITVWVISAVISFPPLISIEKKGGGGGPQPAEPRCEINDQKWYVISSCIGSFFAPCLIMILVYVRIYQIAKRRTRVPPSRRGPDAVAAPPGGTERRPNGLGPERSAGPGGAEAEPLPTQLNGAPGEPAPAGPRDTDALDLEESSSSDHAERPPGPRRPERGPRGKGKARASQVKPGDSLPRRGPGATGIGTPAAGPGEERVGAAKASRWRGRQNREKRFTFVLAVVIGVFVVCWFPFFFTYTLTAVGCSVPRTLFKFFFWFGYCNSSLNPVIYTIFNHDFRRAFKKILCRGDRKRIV
Procedure, shortened: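 Displacement of 1 nM [3H]MK-912 from receptor produced in insect Sf9 cells was measured after 60 min at 25 °C. Readout: percent inhibition of specific binding.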

[4] = target: T4, rat adrenergic α1B receptor (Rattus norvegicus, UniProt P15823); assay: Radioligand binding, adrenergic α1B ([3H]Prazosin); conditions: for Percentage inhibition of ligand binding, Adrenergic α1B / Percentage inhibition of ligand binding, Adrenergic α1B (0.1 μM): 0.1 µM
T4 construct: rat adrenergic α1B receptor obtained from Wistar Rat liver; from tissue; host or cells: Wistar rat liver
T4 sequence (P15823 1-515): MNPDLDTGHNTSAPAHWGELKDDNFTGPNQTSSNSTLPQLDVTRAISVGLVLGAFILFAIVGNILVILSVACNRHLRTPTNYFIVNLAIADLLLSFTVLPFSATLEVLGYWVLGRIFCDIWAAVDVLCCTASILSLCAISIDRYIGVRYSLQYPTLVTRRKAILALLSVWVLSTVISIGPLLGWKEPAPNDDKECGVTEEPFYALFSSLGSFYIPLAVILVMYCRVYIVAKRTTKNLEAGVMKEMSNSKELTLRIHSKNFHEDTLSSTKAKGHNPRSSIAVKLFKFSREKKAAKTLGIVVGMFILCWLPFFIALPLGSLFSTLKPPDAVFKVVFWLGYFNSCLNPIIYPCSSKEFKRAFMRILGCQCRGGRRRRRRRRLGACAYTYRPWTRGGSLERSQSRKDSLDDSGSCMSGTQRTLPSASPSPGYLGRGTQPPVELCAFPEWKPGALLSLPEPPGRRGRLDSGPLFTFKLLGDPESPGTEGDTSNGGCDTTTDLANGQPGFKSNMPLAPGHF
Procedure, shortened: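 Rat α1B receptor from Wistar rat liver was incubated with 0.25 nM [3H]prazosin for 60 min at 25 °C in 50 mM Tris-HCl, pH 7.4, 0.5 mM EDTA. Non-specific binding was defined with 10 μM phentolamine. Bound radioligand was measured by filtration and counting, reported as percent inhibition of specific binding.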

[5] = compound at 0.1 μM, [3H]Rauwolscine, repeat assays, each datapoint shown, read-out: Percentage inhibition of ligand binding, Adrenergic α2B
[6] = compound at 0.1 μM, [3H]Prazosin, repeat assays, each datapoint shown, read-out: Percentage inhibition of ligand binding, Adrenergic α1D
[7] = compound at 0.03 μM, [3H]Rauwolscine, repeat assays, each datapoint shown, read-out: Percentage inhibition of ligand binding, Adrenergic α2B
[8] = compound at 0.1 μM, [3H]Prazosin, repeat assays, each datapoint shown
[9] = compound at 0.1 μM, [3H]Prazosin, repeat assays, each datapoint shown, read-out: Percentage inhibition of ligand binding, Adrenergic α1B
[10] = read-out: Percentage inhibition of ligand binding, Adrenergic α2B (0.1 μM), compound at 0.1 μM, [3H]Rauwolscine, repeat datapoints each shown
[11] = compound at 0.1 μM, [3H]Prazosin, repeat datapoints each shown
[12] = read-out: Percentage inhibition of ligand binding, Adrenergic α1B (0.1 μM), compound at 0.1 μM, [3H]Prazosin, repeat datapoints each shown
[13] = compound at 0.03 μM, [3H]Rauwolscine, repeat assays, each datapoint shown
[14] = compound at 0.03 μM, [3H]Rauwolscine, repeat datapoints each shown
[15] = [3H]MK-912, repeat datapoints each shown

Cc1ccc2c(c1)c1c(n2CC(O)c2ccc(F)cc2)CCN(C)C1 (stereo not drawn) [compound 30]
inhibition at 0.1 µM [1, 5]: 91% | inhibition at 0.1 µM [2, 6]: 49%

Cc1cnc2c(c1)c1c(n2CCc2ccc(C)nc2)CCN2CCCC12 (stereo not drawn) [compound 74, 10-methyl-7-(2-(6-methylpyridin-3-yl)ethyl)-2,3,5,6,7,11c-hexahydro-1H-pyrido[3′,2′:4,5]pyrrolo[2,3-g]indolizine]
inhibition at 0.1 µM [1, 5]: 104% | Percentage inhibition of ligand binding, Adrenergic α2A ([3]; [3H]MK-912): 6% | inhibition at 0.1 µM [2, 6]: 57%

C/C(=C\n1c2c(c3cc(C)cnc31)CN(C)CC2)c1ccc(C)nc1 [compound 78]
inhibition at 0.03 µM [1, 7]: 67% | inhibition at 0.1 µM [1, 5]: 87% | Percentage inhibition of ligand binding, Adrenergic α1B [4, 8]: 12% | inhibition at 0.1 µM [4, 9]: 11% | inhibition at 0.1 µM [2, 6]: 22%

CCC(O)(Cn1c2c(c3cc(Cl)ccc31)CN(C)CC2)c1ccc(F)cc1 (stereo not drawn) [II-160]
inhibition at 0.03 µM ([1]; read-out: Percentage inhibition of ligand binding, Adrenergic α2B (0.03 μM), compound at 0.03 μM, [3H]Rauwolscine, repeat datapoints each shown): 39% | inhibition at 0.1 µM [1, 10]: 35% | Percentage inhibition of ligand binding, Adrenergic α1B (0.1 μM) [4, 11]: 14% | inhibition at 0.1 µM [4, 12]: 7% | inhibition at 0.1 µM ([2]; read-out: Percentage inhibition of ligand binding, Adrenergic α1D (0.1 μM), compound at 0.1 μM, [3H]Prazosin, repeat datapoints each shown): 15%

CCCCC(O)(Cn1c2c(c3cc(Cl)ccc31)CN(C)CC2)c1ccc(F)cc1 (stereo not drawn) [33a]
inhibition at 0.1 µM [2, 6]: 23%

Cc1ccc2c(c1)c1c(n2CC(C)c2ccc(F)cc2)CCN(C)C1 (single isomer, unassigned) [288a]
inhibition at 0.1 µM ([1]; 0.1 μM compound, read-out: Percentage inhibition of ligand binding, Adrenergic α2B): 104% | Percentage inhibition of ligand binding, Adrenergic α1D ([2]; 0.1 μM compound, 0.1 µM): 88%

Cc1ccc2c(c1)c1c(n2C2=C(c3cn[nH]c3)CCC2)CCN(C)C1 [compound 77, 5-(2-(1H-pyrazol-4-yl)cyclopent-1-enyl)-2,8-dimethyl-2,3,4,5-tetrahydro-1H-pyrido[4,3-b]indole]
inhibition at 0.03 µM [1, 7]: 84% | inhibition at 0.1 µM [1, 5]: 91% | Percentage inhibition of ligand binding, Adrenergic α1B [4, 8]: 6% | inhibition at 0.1 µM [4, 9]: 5% | inhibition at 0.1 µM [2, 6]: 10%

CN1CCc2c(c3cc(F)ccc3n2CCc2ccc(F)cc2)C1 [compound 219]
inhibition at 0.03 µM ([3]; read-out: Percentage inhibition of ligand binding, Adrenergic α2A (0.03 μM), compound at 0.03 μM, [3H]MK-912, repeat datapoints each shown): 69% | inhibition at 0.03 µM ([2]; read-out: Percentage inhibition of ligand binding, Adrenergic α1D (0.03 μM), compound at 0.03 μM, [3H]Prazosin, repeat datapoints each shown): 3%

Cc1ccc2c(c1)c1c(n2CC(O)c2ccncc2)C(C)N2CCC1C2 (single isomer, unassigned) [38a]
Percentage inhibition of ligand binding, Adrenergic α2B [1, 13]: 35% | Percentage inhibition of ligand binding, Adrenergic α2A ([3]; [3H]MK-912): 14% | Percentage inhibition of ligand binding, Adrenergic α1B [4, 8]: 11%

CN1CCc2c(c3ccccc3n2CC(C)(O)c2cccnc2)C1 (single isomer, unassigned) [173a]
Percentage inhibition of ligand binding, Adrenergic α2B (0.03 μM) [1, 14]: 61% and 68% | Ki ([1]; read-out: Ki α2B): 8.77 nM | inhibition at 0.1 µM [1, 10]: 82% | Percentage inhibition of ligand binding, Adrenergic α2A (0.1 μM) [3, 15]: 15% | inhibition at 0.1 µM [4, 12]: 5%

Cc1ccc2c(c1)c1c(n2CC(C)(O)c2cccnc2)C(O)CN(C)C1 (single isomer, unassigned) [II-151b]
Percentage inhibition of ligand binding, Adrenergic α2B (0.03 μM) [1, 14]: 78% | Percentage inhibition of ligand binding, Adrenergic α2A (0.1 μM) [3, 15]: 11% | Percentage inhibition of ligand binding, Adrenergic α1B (0.1 μM) [4, 11]: 13%

Cc1ccc2c(c1)c1c(n2CC(C)(OC(=O)c2ccncc2)c2cccnc2)CCN(C)C1 (stereo not drawn) [II-19]
inhibition at 0.03 µM ([1]; 0.03 μM compound, read-out: Percentage inhibition of ligand binding, Adrenergic α2B): 21% | inhibition at 0.1 µM [3]: 8% | inhibition at 0.1 µM ([4]; 0.1 μM compound, read-out: Percentage inhibition of ligand binding, Adrenergic α1B): 8%

CN1CCc2c(n(CC(O)c3ccncc3)c3ccc(Cl)cc23)CC1 (single isomer, unassigned) [15a, 2-(9-chloro-3-methyl-2,3,4,5-tetrahydroazepino[4,5-b]indol-6(1H)-yl)-1-(pyridin-4-yl)ethanol]
Percentage inhibition of ligand binding, Adrenergic α2B [1, 13]: 65% | Percentage inhibition of ligand binding, Adrenergic α2A ([3]; [3H]MK-912): 6% | Percentage inhibition of ligand binding, Adrenergic α1B [4, 8]: 81%

Cc1cnc2c(c1)c1c(n2CC(C)(O)c2cccnc2)CCN(C)C1 (single isomer, unassigned) [II-99a]
Percentage inhibition of ligand binding, Adrenergic α2B ([1]; 0.03 μM compound): 49% | inhibition at 0.1 µM [3]: 24% | Percentage inhibition of ligand binding, Adrenergic α1B ([4]; 0.1 μM compound): 12%

From patent US8791132B2, “Compounds and methods for treatment of hypertension” (Medivation Technologies, Inc., priority 2011, dated 2014)
